In general, inhibition refers to the relative decrease from the control value, in per cent. Usually IC50 stands for the midpoint of a concentration-inhibition curve.

This note sets out measurements from PMC6207720, “Identification and antitumor activity of a novel inhibitor of the NIMA-related kinase NEK6” (Scientific Reports, 2018).

SMILES strings stand for the structures.

In one experiment the target is T1, NEK6 (Homo sapiens, UniProt Q9HC98).
T1 construct: purchased Carna 05-130
As to the kind of experiment: Off-chip Mobility Shift Assay (MSA), NEK6. It counts as biochemical. As for the experimental part:
(§1) Therefore, we decided to evaluate the selectivity of compound 8 against a panel of NEK kinases at 10 µM, using the technique of Off-chip Mobility shift assay. This concentration was chosen according to the guidelines proposed by Knight and Shokat, since the probability of off-target effects increases dramatically above 10 µM[36]. Furthermore, ATP concentration was set to approximate the Km,ATP for each kinase, so that the resulting selectivity profile directly reflects the intrinsic affinities of the inhibitor[37]. […] A major consequence of this substitution may be the redistribution of surface charges at the flexible activation loop resulting in an altered electrostatic potential and ability of NEK6 kinase to interact with other molecules.
(§2) The inhibitory activity of compounds 8 and 21 on NEK6 was also verified with MSA technique (Off-chip Mobility shift assay) (CARNA Biosciences Study ID: CBS170097, CARNA Biosciences, Kobe). […] PKR Inhibitor was used as positive control. For profiling study against NEK kinases (i.e. NEK1, NEK2, NEK6, NEK7, NEK9) (CARNA Biosciences Study ID: CBS170098), 8 was tested at 10 μM and ATP concentration approximating Km for each kinase. Assay condition for kinases are available on “Kinase profiling book” downloading by www.carnabio.com (https://www.carnabio.com/output/pdf/ProfilingProfilingBook_en.pdf).

The target of the next experiment is T2, NEK1 (Homo sapiens, UniProt Q96PY6).
T2 sequence (Q96PY6 1-1258): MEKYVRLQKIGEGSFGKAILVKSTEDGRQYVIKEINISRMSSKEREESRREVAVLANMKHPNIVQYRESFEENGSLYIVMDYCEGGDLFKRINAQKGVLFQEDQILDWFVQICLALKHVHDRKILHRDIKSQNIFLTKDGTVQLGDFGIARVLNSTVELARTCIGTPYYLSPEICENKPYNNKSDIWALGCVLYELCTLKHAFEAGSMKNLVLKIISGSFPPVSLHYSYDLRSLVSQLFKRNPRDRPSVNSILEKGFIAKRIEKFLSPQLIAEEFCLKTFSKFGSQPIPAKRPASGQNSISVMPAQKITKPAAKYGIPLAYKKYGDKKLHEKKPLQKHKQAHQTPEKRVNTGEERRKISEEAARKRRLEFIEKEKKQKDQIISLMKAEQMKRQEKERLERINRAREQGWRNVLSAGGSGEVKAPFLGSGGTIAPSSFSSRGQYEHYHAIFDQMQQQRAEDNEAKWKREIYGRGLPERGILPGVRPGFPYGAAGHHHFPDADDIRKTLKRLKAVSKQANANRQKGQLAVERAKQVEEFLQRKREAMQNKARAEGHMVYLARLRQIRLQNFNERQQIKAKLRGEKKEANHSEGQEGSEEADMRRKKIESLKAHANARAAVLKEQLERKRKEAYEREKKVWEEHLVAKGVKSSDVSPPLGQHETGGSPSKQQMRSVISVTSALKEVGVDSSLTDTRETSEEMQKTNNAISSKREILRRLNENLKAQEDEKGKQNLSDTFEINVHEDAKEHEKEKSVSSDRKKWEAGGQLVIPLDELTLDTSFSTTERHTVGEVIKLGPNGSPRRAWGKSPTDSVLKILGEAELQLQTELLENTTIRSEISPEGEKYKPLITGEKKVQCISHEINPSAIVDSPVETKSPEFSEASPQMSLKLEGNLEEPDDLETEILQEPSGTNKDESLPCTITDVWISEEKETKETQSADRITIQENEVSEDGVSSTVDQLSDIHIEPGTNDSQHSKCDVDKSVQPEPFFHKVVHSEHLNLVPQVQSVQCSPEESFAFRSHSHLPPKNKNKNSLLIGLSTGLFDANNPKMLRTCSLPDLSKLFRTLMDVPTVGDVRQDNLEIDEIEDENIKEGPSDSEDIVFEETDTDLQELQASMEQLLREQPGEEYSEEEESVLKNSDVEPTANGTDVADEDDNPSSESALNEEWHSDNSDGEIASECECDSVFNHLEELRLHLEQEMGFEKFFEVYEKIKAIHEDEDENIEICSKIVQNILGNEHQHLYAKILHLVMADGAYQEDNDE
The experiment is described as follows: Off-chip Mobility Shift Assay (MSA) profiling, NEK1. It counts as biochemical. As to conditions: ATP approximating Km. As for the experimental part: as §1, §2

A further experiment relates to PEO1 (ovary). As to the kind of experiment: Cell-based cytotoxicity assay (ATPlite), PEO1. Details: species or system human. As to conditions: Homo sapiens; PEO1, 72 h, ATPlite; NA = not active (IC50 greater than 100 µM); read-out: IC50 Values (µM ± SEM). An excerpt: (§3) The following human carcinoma cell lines were used for the study: MDA-MB-231 and MCF-7 (breast cancer; ATCC, Sesto San Giovanni, MI), PEO1 and COV318 (ovarian cancer; ECACC, Salisbury, UK and ATCC), HCT-15 and SW948 (colon cancer; Public Health England, Salisbury, UK and ATCC), NCI-H1975 and NCI-H1299, (lung cancer; ATCC). Cells were routinely tested free of mycoplasma (MycoAlert mycoplasma detection kit, LONZA, Rockland, ME, USA) and validated by STR (Short Tandem Repeat) DNA profiling (BMR Genomics srl, PD). Cells were grown following supplier indication, in a fully humidified atmosphere of 5% CO2/95% air. All the reagents were purchased from Sigma-Aldrich (St. Louis, MO), if not otherwise specified.

The next experiment relates to HCT15 (colon). The experiment is described as follows: Cell-based cytotoxicity assay (ATPlite), HCT15. The following applies: Homo sapiens, HCT-15, HCT15, 72 h, NA = not active (IC50 greater than 100 µM), read-out: IC50 Values (µM ± SEM).
Source text: as §3

The next experiment concerns the target T3, NEK2 (Homo sapiens, UniProt P51955).
T3 sequence (P51955 1-445): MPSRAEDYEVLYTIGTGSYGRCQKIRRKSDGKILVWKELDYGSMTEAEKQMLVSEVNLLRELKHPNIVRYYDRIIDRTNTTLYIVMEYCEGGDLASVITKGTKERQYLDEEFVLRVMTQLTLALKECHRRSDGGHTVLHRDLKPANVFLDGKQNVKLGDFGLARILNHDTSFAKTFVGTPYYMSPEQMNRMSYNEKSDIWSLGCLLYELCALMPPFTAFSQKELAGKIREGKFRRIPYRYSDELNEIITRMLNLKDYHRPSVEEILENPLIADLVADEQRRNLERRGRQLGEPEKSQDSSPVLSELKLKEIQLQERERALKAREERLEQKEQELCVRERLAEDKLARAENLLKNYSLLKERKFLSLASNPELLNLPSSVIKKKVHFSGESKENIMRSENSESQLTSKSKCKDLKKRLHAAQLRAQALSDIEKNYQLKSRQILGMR
As to the kind of experiment: Off-chip Mobility Shift Assay (MSA) profiling, NEK2. The format is biochemical. The following applies: ATP approximating Km. On the procedure: as §1, §2

T1 sequence (Q9HC98 whole entry): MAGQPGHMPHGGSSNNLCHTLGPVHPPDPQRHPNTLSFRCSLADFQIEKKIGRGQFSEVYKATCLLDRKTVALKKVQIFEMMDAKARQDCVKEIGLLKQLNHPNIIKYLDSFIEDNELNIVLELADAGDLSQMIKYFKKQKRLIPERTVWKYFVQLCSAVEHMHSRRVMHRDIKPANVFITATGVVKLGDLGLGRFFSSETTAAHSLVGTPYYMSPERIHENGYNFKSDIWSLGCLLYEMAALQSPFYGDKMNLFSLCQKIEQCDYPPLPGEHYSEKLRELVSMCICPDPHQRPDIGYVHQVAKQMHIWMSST

For the compound `CC1=C(C#N)C(O)=NC(=O)/C1=C\c1ccc(-c2ccccc2)o1` [Compound 8, (5Z)-2-hydroxy-4-methyl-6-oxo-5-[(5-phenylfuran-2-yl)methylidene]-5,6-dihydropyridine-3-carbonitrile], the inhibition at 10 µM on NEK6 (10 µM, ATP approximating Km) is 42.5%; on NEK1, 47%; on NEK2 it was at most 0%. Further, the IC50 on NEK6 (CARNA Biosciences Study CBS170097, ATP 75 µM) came to 13.8 µM; in the experiment on PEO1 (ovary) it was 44 ± 6.5 µM; in the experiment with HCT15 (colon) it was 98.5 ± 0.5 µM.
